Experimental findings from patent EP0075139A1 (priority 1981, dated 1983) are described below.

SMILES strings stand for the structures.

In the first test the test system is Plasmopara viticola. Kind of test: Efficacy against Plasmopara viticola on potted vine leaves (protective spray, greenhouse). The format is in vivo. The settings on record: 0,025 %ige Spritzbrühe; potted vines "Müller-Thurgau"; infected 10 days after spraying; value given as 'beispielsweise' (for example). An excerpt: Wirksamkeit gegen Plasmopara viticola
Blätter von Topfreben der Sorte "Müller-Thurgau" werden mit wäßriger Spritzbrühe, die 80 % Wirkstoff und 20 % Emulgiermittel in der Trockensubstanz enthält, besprüht. Um die Wirkungsdauer der Wirkstoffe beurteilen zu können, werden die Pflanzen nach dem Antrocknen des Spritzbelages 10 Tage im Gewächshaus aufgestellt. Erst dann werden die Blätter mit einer Zoosporenaufschwemmung von Plasmopara viticola (Rebenperonospora) infiziert. Danach werden die Reben zunächst für 16 Stunden in einer wasserdampfgesättigten Kammer bei 24°C und anschließend für 8 Tage in einem Gewächshaus mit Temperaturen zwischen 20 und 30 C aufgestellt. Nach dieser Zeit werden die Pflanzen zur Beschleunigung des Sporangienträgerausbruchs abermals für 16 Stunden in der feuchten Kammer aufgestellt. Dann erfolgt die Beurteilung des Ausmaßes des Pilzausbruches auf den Blattunterseiten.
Das Ergebnis des Versuches zeigt, daß beispielsweise die Verbindungen Nr. 1, 2, 11 und 12 bei Anwendung als 0,025 %ige Spritzbrühe eine bessere fungizide Wirkung (beispielsweise 100 %) zeigen als der bekannte Wirkstoff A (beispielsweise 90 %).
As to `O=C1c2ccccc2C(=O)N1SC(Cl)(Cl)Cl` [Verbindung A, N-Trichlormethylthio-phthalimid], the “fungizide Wirkung” value is reported as 90%.

Consider `CC(=O)C(=O)N(c1c(C)ccc2ccccc12)C1CCOC1=O` (stereo not drawn) [Verbindung Nr. 1, N-(2-Methyl-1-naphthyl)-N-(alpha-butyro--gamma-lactonyl)-brenztraubensäure-amid], for which the “fungizide Wirkung” value is on record as 100%.

The subject of a further test is Phytophthora infestans.
Experiment: not given
Format: in vivo. Conditions: 0,025 %ige Spritzbrühe; potted tomato "Große Fleischtomate"; assessed 5 days after infection; value given as 'beispielsweise' (for example).
On to `S=C([S-])NCCNC(=S)[S-].[Zn+2]` [Verbindung C, Zink-ethylen-1,2-bis-dithiocarbamat], for which the “fungizide Wirkung” value was determined as 70%.

As for `O=C1C2CC=CCC2C(=O)N1SC(Cl)(Cl)Cl` (stereo not drawn) [Verbindung B, N-Trichlormethylthio-tetrahydrophthalimid], the “fungizide Wirkung” value worked out at 70%.

In the case of `CC(=O)C(=O)N(c1c(C)ccc2ccccc12)C1CCOC1=O` (stereo not drawn) [Verbindung Nr. 1, N-(2-Methyl-1-naphthyl)-N-(alpha-butyro--gamma-lactonyl)-brenztraubensäure-amid], the “fungizide Wirkung” value came out at 90%.

As for `COC(=O)C(C)N(C(=O)C(C)=NOCc1c(Cl)cccc1Cl)c1c(C)cccc1C` (stereo not drawn) [Verbindung Nr. 22, N-(2,6-Dimethyl-phenyl)-N-[(1-methoxycarbonyl)-1-ethyl]-2-[O-(2,6-dichlor-benzyl)-oximino]-brenztraubensäure-amid], the “fungizide Wirkung” value stood at 90%.
